Results on 47 compounds are retold here after the Biogen ADME set (Fang et al. 2023).

As usually defined, the aqueous solubility is the dissolved amount per volume that the medium holds. Lower therefore signals a poorly soluble substance.

For this data set the following is noted: for aqueous solubility: pH 6.8.

Each structure is given as a SMILES string. Converted amounts (≈) assume the structure as drawn.

Consider `CCOc1ccc(Nc2nc(-c3c(C)nc4ccccn34)cs2)cc1`, for which the MDR1-MDCK efflux ratio is 0.134; the intrinsic clearance, human liver microsomes stood at 159 mL/min/kg; the intrinsic clearance, rat liver microsomes came to 451 mL/min/kg; the aqueous solubility was 45 µg/mL (≈ 128 µM).

In the case of `CNC(=O)c1ccc(CN(C)c2c(F)cc(C#N)cc2F)cc1`, the MDR1-MDCK efflux ratio turned out to be 0.595; the intrinsic clearance, human liver microsomes was 11.5 mL/min/kg; the intrinsic clearance, rat liver microsomes came out at 238 mL/min/kg; the aqueous solubility amounted to 15.7 µg/mL (≈ 49.9 µM).

Take `Cc1ccc(S(=O)(=O)NC(=O)c2c(C)cc3n2CCn2c(C)ccc2-3)cc1`: the aqueous solubility worked out at 33.1 µg/mL (≈ 86.3 µM).

On to `C[C@]12CCC3=C4CCC(=O)C=C4CC[C@H]3[C@@H]1CC[C@@]2(O)CC#N`, for which the MDR1-MDCK efflux ratio worked out at 3.64; the intrinsic clearance, human liver microsomes was found to be 21 mL/min/kg; the intrinsic clearance, rat liver microsomes came to 185 mL/min/kg.

Take `CN(Cc1cccnc1)Cc1ccc(C#N)o1`: the MDR1-MDCK efflux ratio is 0.648; the intrinsic clearance, human liver microsomes is 9.78 mL/min/kg; the intrinsic clearance, rat liver microsomes was found to be 69.7 mL/min/kg; the aqueous solubility was determined as 30.7 µg/mL (≈ 135 µM).

For the compound `O=C(C1CCCCC1)N1CCC[C@H]1Cn1nnc(-c2cccs2)n1`, the intrinsic clearance, human liver microsomes amounted to 130 mL/min/kg and the intrinsic clearance, rat liver microsomes came out at 5120 mL/min/kg.

`Cc1cc(C)cc(OCCN(C)C(=O)NCCN2CCCCC2=O)c1`: the MDR1-MDCK efflux ratio came to 29.2; the intrinsic clearance, human liver microsomes amounted to 150 mL/min/kg; the intrinsic clearance, rat liver microsomes was 1300 mL/min/kg.

With `CCCc1nnc(N2CCC3(CCCC3)C2)s1`, the MDR1-MDCK efflux ratio stood at 0.525; the intrinsic clearance, human liver microsomes stood at 86.7 mL/min/kg; the intrinsic clearance, rat liver microsomes was found to be 2160 mL/min/kg.

For `C=CCn1cc(CNCc2csc3ccc(Cl)cc23)c(C)n1`, the intrinsic clearance, human liver microsomes is 347 mL/min/kg; the intrinsic clearance, rat liver microsomes was found to be 3200 mL/min/kg; the aqueous solubility worked out at 21.4 µg/mL (≈ 64.5 µM).

Consider `Cc1cc(C(=O)Nc2ccc(C)c(C)c2)n(-c2ccccc2)n1`, for which the MDR1-MDCK efflux ratio is 0.392; the intrinsic clearance, human liver microsomes is 97 mL/min/kg; the intrinsic clearance, rat liver microsomes was 2050 mL/min/kg; the aqueous solubility turned out to be 3.93 µg/mL (≈ 12.9 µM).

For `COc1cc2c(cc1OC)CN(C(=O)C1CCCN(C(=O)OC(C)(C)C)C1)CC2` (configuration not stated), the MDR1-MDCK efflux ratio came to 1.79; the intrinsic clearance, human liver microsomes was found to be 106 mL/min/kg; the intrinsic clearance, rat liver microsomes came to 643 mL/min/kg; the aqueous solubility turned out to be 61.9 µg/mL (≈ 153 µM).

As to `O=C(NC1CCNCC1)c1ccc2cn[nH]c2c1`, the fraction unbound, human plasma is 1; the fraction unbound, rat plasma turned out to be 0.511; the intrinsic clearance, human liver microsomes amounted to 16.1 mL/min/kg.

`O=C1N[C@@H]2CCN(C(=O)c3ccc(-c4ccccc4)cc3)[C@@H]2C(=O)N1c1ccc(F)cc1`: the MDR1-MDCK efflux ratio stood at 44.4; the intrinsic clearance, human liver microsomes is no more than 4.74 mL/min/kg; the intrinsic clearance, rat liver microsomes was 29.7 mL/min/kg; the aqueous solubility came out at 31.5 µg/mL (≈ 73.3 µM).

With `NC[C@@](O)(c1ccc(Cl)cc1)c1ccc(-c2cn[nH]c2)cc1`, the MDR1-MDCK efflux ratio came out at 1.61; the intrinsic clearance, human liver microsomes is no more than 4.74 mL/min/kg; the intrinsic clearance, rat liver microsomes turned out to be 28 mL/min/kg.

With `N#Cc1ccc(-c2cccc(CN)c2)s1`, the intrinsic clearance, human liver microsomes amounted to 356 mL/min/kg and the intrinsic clearance, rat liver microsomes came to 557 mL/min/kg.

Turning to `COc1ccc(CN[C@@H]2CCC[C@H]2Cc2cc(C)no2)cc1OC`, the MDR1-MDCK efflux ratio is 3.3; the intrinsic clearance, human liver microsomes is 36.9 mL/min/kg; the intrinsic clearance, rat liver microsomes came to 1120 mL/min/kg.

With `O=C1c2cccc3cccc(c23)C(=O)N1CCN1CCOCC1`, the MDR1-MDCK efflux ratio is 0.595; the intrinsic clearance, human liver microsomes came out at 12.1 mL/min/kg; the intrinsic clearance, rat liver microsomes stood at 424 mL/min/kg; the aqueous solubility was 36.9 µg/mL (≈ 119 µM).

For `CCc1nc(C)c(Cn2ccnc2-c2cnc(N3CCCC3)nc2)s1`, the MDR1-MDCK efflux ratio worked out at 4.25; the intrinsic clearance, human liver microsomes worked out at 31.9 mL/min/kg; the intrinsic clearance, rat liver microsomes came out at 548 mL/min/kg; the aqueous solubility came to 35 µg/mL (≈ 98.9 µM).

`Cc1nc(-c2ccccc2)ccc1C(=O)NC1CCCC1` gave an intrinsic clearance, human liver microsomes of no more than 4.74 mL/min/kg; an intrinsic clearance, rat liver microsomes of 319 mL/min/kg; an aqueous solubility of 41 µg/mL (≈ 146 µM).

As to `CCCCOc1ccccc1-c1cc(C(=O)NCCc2cccs2)[nH]n1`, the MDR1-MDCK efflux ratio was determined as 0.459 and the aqueous solubility worked out at 0.37 µg/mL (≈ 1 µM).

For `Cc1noc(C(C)C)c1C(=O)Nc1ccccn1`, the MDR1-MDCK efflux ratio came to 0.524; the intrinsic clearance, human liver microsomes worked out at 28.4 mL/min/kg; the intrinsic clearance, rat liver microsomes came to 510 mL/min/kg; the aqueous solubility is 58.3 µg/mL (≈ 238 µM).

As to `Cc1c(Cl)cccc1NC(=O)C(C)N1CCCN(c2nccs2)CC1` (configuration not stated), the MDR1-MDCK efflux ratio turned out to be 0.958; the intrinsic clearance, human liver microsomes was 928 mL/min/kg; the intrinsic clearance, rat liver microsomes came to 4390 mL/min/kg; the aqueous solubility turned out to be 48.2 µg/mL (≈ 127 µM).

Consider `O=C(Nc1ccc(COC2CCCC2)cc1)N1CCC(CO)CC1`, for which the MDR1-MDCK efflux ratio came to 5.55; the intrinsic clearance, human liver microsomes is no more than 4.74 mL/min/kg; the intrinsic clearance, rat liver microsomes turned out to be 329 mL/min/kg.

Regarding `C[C@]1(O)CN(C(=O)Cn2cnc3ccccc32)CC[C@@H]1Oc1ccccc1`, the MDR1-MDCK efflux ratio is 47.2; the intrinsic clearance, human liver microsomes was 5.54 mL/min/kg; the intrinsic clearance, rat liver microsomes stood at 181 mL/min/kg.

In the case of `Cc1oc2ccccc2c1CNc1nnc(-c2ccncc2)o1`, the MDR1-MDCK efflux ratio is 1.02; the fraction unbound, human plasma came out at 0.0522; the fraction unbound, rat plasma came out at 0.00672; the intrinsic clearance, human liver microsomes was 33.4 mL/min/kg. This compound also had an intrinsic clearance, rat liver microsomes of 141 mL/min/kg.

As to `O=C(NCC1(c2ccc(F)cc2)CCOCC1)c1ccccn1`, the MDR1-MDCK efflux ratio came out at 0.793; the intrinsic clearance, human liver microsomes came to 11.6 mL/min/kg; the intrinsic clearance, rat liver microsomes was found to be 449 mL/min/kg; the aqueous solubility is 50 µg/mL (≈ 159 µM).

In the case of `O=C1CCCN1c1ccc(CN2CCC(c3noc4cc(F)ccc34)CC2)cc1`, the MDR1-MDCK efflux ratio turned out to be 0.963; the intrinsic clearance, human liver microsomes was found to be 26.7 mL/min/kg; the intrinsic clearance, rat liver microsomes worked out at 109 mL/min/kg; the aqueous solubility came to 58.6 µg/mL (≈ 149 µM).

For the compound `COc1cc([C@@H]2c3cc4c(cc3[C@H](O)[C@H]3COC(=O)[C@@H]23)OCO4)cc(OC)c1OC`, the MDR1-MDCK efflux ratio stood at 0.444; the intrinsic clearance, human liver microsomes was found to be 44.5 mL/min/kg; the intrinsic clearance, rat liver microsomes is 5860 mL/min/kg.

Regarding `N#CCn1ncnc1-c1cccc(C#N)c1`, the MDR1-MDCK efflux ratio turned out to be 0.748; the intrinsic clearance, human liver microsomes was no more than 4.74 mL/min/kg; the intrinsic clearance, rat liver microsomes came to 50.8 mL/min/kg.

As for `Cc1ccc(OCC(=O)Nc2cc(C)on2)nc1`, the intrinsic clearance, human liver microsomes was no more than 4.74 mL/min/kg and the intrinsic clearance, rat liver microsomes is no more than 10.7 mL/min/kg.

On to `COc1cccc(CN2Cc3ccccc3OC3(CCOCC3)C2)c1`, for which the MDR1-MDCK efflux ratio turned out to be 0.527; the intrinsic clearance, human liver microsomes came out at 133 mL/min/kg; the intrinsic clearance, rat liver microsomes is 1580 mL/min/kg; the aqueous solubility was found to be 16.1 µg/mL (≈ 47.3 µM).

As to `Cc1cc(-c2cccc3ccnn23)nc(N2CCCC2)n1`, the intrinsic clearance, human liver microsomes came out at 122 mL/min/kg and the intrinsic clearance, rat liver microsomes amounted to 1600 mL/min/kg.

For the compound `CC1Cc2ccccc2N1C(=O)CN1CCC(n2c(=O)[nH]c3ccccc32)CC1` (configuration not stated), the MDR1-MDCK efflux ratio is 29; the intrinsic clearance, human liver microsomes is 61.3 mL/min/kg; the intrinsic clearance, rat liver microsomes came to 1030 mL/min/kg; the aqueous solubility came out at 54.8 µg/mL (≈ 140 µM).

In the case of `Cc1cccc2c1Oc1nc(-c3ccccc3)[nH]c(=S)c1C2`, the aqueous solubility was found to be 0.33 µg/mL (≈ 1.08 µM).

As to `Cc1c[nH]c2nccc(Oc3c(F)cc(Nc4cc(Cl)nc(N)n4)cc3F)c12`, the MDR1-MDCK efflux ratio was determined as 2.53; the fraction unbound, human plasma amounted to 0.0006; the fraction unbound, rat plasma is 0.00206; the intrinsic clearance, human liver microsomes is 14.3 mL/min/kg. The intrinsic clearance, rat liver microsomes came out at 173 mL/min/kg.

Consider `CC1CCC(NC(=O)c2oc3ccccc3c2CS(C)=O)CC1` (configuration not stated), for which the MDR1-MDCK efflux ratio worked out at 2.52; the intrinsic clearance, human liver microsomes was 15.2 mL/min/kg; the intrinsic clearance, rat liver microsomes worked out at 154 mL/min/kg; the aqueous solubility is 68.8 µg/mL (≈ 206 µM).

On to `Cc1nccc(NC(=O)CCc2ccncc2)c1Cl`, for which the MDR1-MDCK efflux ratio was 0.826; the intrinsic clearance, human liver microsomes is no more than 4.74 mL/min/kg; the intrinsic clearance, rat liver microsomes is 73.1 mL/min/kg.

As to `Cc1cccc(NCCc2cc(F)cc3c2OCOC3)n1`, the MDR1-MDCK efflux ratio came to 0.374; the intrinsic clearance, human liver microsomes is 397 mL/min/kg; the intrinsic clearance, rat liver microsomes stood at 5180 mL/min/kg.

`NC(=O)c1sc2cc(F)ccc2c1Cl` had an aqueous solubility of 0.5 µg/mL (≈ 2.18 µM).

Consider `OC1(Cc2nc(-c3ccsc3)no2)CCCCC1`, for which the MDR1-MDCK efflux ratio was 0.564; the intrinsic clearance, human liver microsomes worked out at 20.5 mL/min/kg; the intrinsic clearance, rat liver microsomes is 1040 mL/min/kg.

As to `Cn1cc(C(=O)NCCc2c[nH]c3ccccc23)c(-c2cccnc2)n1`, the MDR1-MDCK efflux ratio was 29; the intrinsic clearance, human liver microsomes was 36.2 mL/min/kg; the intrinsic clearance, rat liver microsomes worked out at 415 mL/min/kg; the aqueous solubility worked out at 56.2 µg/mL (≈ 163 µM).

As to `CN(Cc1ccc(OC(F)(F)F)cc1)Cc1cn(C)nn1`, the MDR1-MDCK efflux ratio stood at 0.666; the intrinsic clearance, human liver microsomes is 15 mL/min/kg; the intrinsic clearance, rat liver microsomes amounted to 290 mL/min/kg.

With `O=C(NC1CCCC1)N1CCN(c2nccn3nc4c(c23)CCCC4)CC1`, the MDR1-MDCK efflux ratio was determined as 2; the intrinsic clearance, human liver microsomes is 118 mL/min/kg; the intrinsic clearance, rat liver microsomes came to 464 mL/min/kg; the aqueous solubility is 17.1 µg/mL (≈ 46.4 µM).

With `Cc1cc(Cl)c(OCCCN2CCNCC2)c(Br)c1`, the intrinsic clearance, human liver microsomes was no more than 4.74 mL/min/kg; the intrinsic clearance, rat liver microsomes was determined as 461 mL/min/kg; the aqueous solubility amounted to 36.9 µg/mL (≈ 106 µM).

Consider `Clc1cccc(Cl)c1Cc1n[nH]c(CCCn2cccn2)n1`, for which the MDR1-MDCK efflux ratio was 13.3; the intrinsic clearance, human liver microsomes came out at 99.9 mL/min/kg; the intrinsic clearance, rat liver microsomes was determined as 581 mL/min/kg.

As to `O=C(C1CC1c1ccccc1F)N1CCC(n2c(=O)[nH]c3ccccc32)CC1` (configuration not stated), the intrinsic clearance, human liver microsomes was 47.2 mL/min/kg; the intrinsic clearance, rat liver microsomes was found to be 1190 mL/min/kg; the aqueous solubility is 49.9 µg/mL (≈ 131 µM).

In the case of `Cc1cccc(N(C)C(=O)COC2CCCC2)n1`, the MDR1-MDCK efflux ratio came to 0.667; the intrinsic clearance, human liver microsomes was 44.8 mL/min/kg; the intrinsic clearance, rat liver microsomes amounted to 200 mL/min/kg; the aqueous solubility was 59.6 µg/mL (≈ 240 µM).
